In the NIST ThermoML archive (doi:10.1021/je1009619):

Experiment: xn = mol fraction of the nth substance listed
Conditions: Liquid, Vibrating tube method

CC1=CC[C@H]2C[C@@H]1C2(C)C [(S)-2-pinene] + C=C(C)[C@H]1CC=C(C)CC1
mass density [kg/m3]
Conditions	x2 = 0	x2 = 0.0976	x2 = 0.1991	x2 = 0.2983	x2 = 0.3955	x2 = 0.5036	x2 = 0.5967	x2 = 0.7024	x2 = 0.8084	x2 = 0.906
283.15 K, 20000 kPa	880	878.3	876.4	874.6	872.9	870.9	869.2	867.4	865.3	863.5
283.15 K, 25000 kPa	883.2	881.4	879.3	877.6	875.8	873.8	872.1	870.3	868.3	866.6
283.15 K, 30000 kPa	886.3	884.3	882.4	880.5	878.7	876.7	875.1	873.1	871.3	869.2
283.15 K, 35000 kPa	889.4	887.5	885.4	883.4	881.7	879.7	878	876.1	873.9	871.9
283.15 K, 40000 kPa	892.5	890.4	888.5	886.5	884.7	882.7	880.9	878.9	876.5	874.4
298.15 K, 20000 kPa	868.8	866.9	865.4	863.5	861.7	860	858.4	856.9	855.1	853
298.15 K, 25000 kPa	872.1	870.3	868.6	866.8	865	863.2	861.6	859.8	858	856.1
298.15 K, 30000 kPa	875.3	873.5	871.7	869.8	868.1	866.3	864.7	862.8	861	859.1
298.15 K, 35000 kPa	878.6	876.7	875	873.1	871.3	869.5	867.9	865.9	864.1	862.2
298.15 K, 40000 kPa	881.9	880	878.1	876.3	874.5	872.6	871	869	867.1	865.2
313.15 K, 20000 kPa	858	856.2	854.4	852.6	851	849.2	847.6	845.9	844.1	842.4
313.15 K, 25000 kPa	861.3	859.5	857.7	855.9	854.3	852.5	851	849.2	847.4	845.7
313.15 K, 30000 kPa	864.7	862.8	861.1	859.3	857.6	855.7	854.2	852.4	850.5	848.8
313.15 K, 35000 kPa	867.9	866.2	864.5	862.6	860.9	858.9	857.4	855.6	853.8	852
313.15 K, 40000 kPa	871.3	869.5	867.8	866	864.2	862.2	860.6	858.8	856.9	855.1
328.15 K, 20000 kPa	846.7	845.1	843.4	841.8	840.2	838.4	837	835.3	833.5	832
328.15 K, 25000 kPa	850.4	848.7	847	845.2	843.6	841.9	840.4	838.6	836.9	835.4
328.15 K, 30000 kPa	854	852.3	850.6	848.8	847.2	845.4	843.9	842.1	840.4	838.7
328.15 K, 35000 kPa	857.5	855.8	854	852.3	850.6	848.8	847.3	845.5	843.7	841.9
328.15 K, 40000 kPa	861.1	859.4	857.5	855.8	854.1	852.1	850.6	848.8	847.1	845.3
343.15 K, 20000 kPa	835.9	834.4	832.8	831.2	829.6	827.9	826.5	824.8	823.1	821.6
343.15 K, 25000 kPa	839.7	838.1	836.5	834.9	833.4	831.7	830.2	828.4	826.8	825.2
343.15 K, 30000 kPa	843.8	842.1	840.4	838.8	837.1	835.4	834	832.1	830.4	828.8
343.15 K, 35000 kPa	847.7	846	844.2	842.5	840.9	839.1	837.6	835.9	834.1	832.2
343.15 K, 40000 kPa	851.4	849.6	847.9	846.2	844.5	842.7	841.2	839.5	837.3	835.5
358.15 K, 20000 kPa	825	823.5	822.1	820.7	819.3	817.9	816.5	815.1	813.3	811.5
358.15 K, 25000 kPa	829.2	827.7	826	824.6	823.1	821.6	820.2	818.7	816.9	815.3
358.15 K, 30000 kPa	833.3	831.6	830	828.4	826.9	825.3	823.9	822.2	820.6	818.7
358.15 K, 35000 kPa	837.4	835.7	834	832.2	830.7	829	827.5	825.8	824	822.4
358.15 K, 40000 kPa	841.5	839.7	838	836.2	834.6	832.8	831.2	829.4	827.6	825.9
